Experimental data reported in the NIST ThermoML archive (doi:10.1016/j.jct.2012.06.003).
Numbers after ± are expanded uncertainties.

Tests used:
[1] = Molar enthalpy of transition or fusion; conditions: DSC
[2] = for Normal melting temperature: Crystal

Molar enthalpy of transition or fusion ([1]; Crystal 2): 0.467 ± 0.0526 kcal/mol | Molar enthalpy of transition or fusion ([1]; Crystal): 10 ± 0.217 kcal/mol | Triple point temperature ([2]; Crystal 2, DTA): 310.3 ± 0.4 K | Normal melting temperature ([2]; DTA): 64.61 ± 0.39 °C | Normal melting temperature ([2]; Visual method): 63 ± 0.1 °C
Compound: CCCCCC[n+]1cccc(C)c1.O=S(=O)([O-])C(F)(F)F [1-hexyl-3-methylpyridinium trifluoromethanesulfonate]
